Laboratory results: PMC9741287, “Cytotoxic and Luminescent Properties of Novel Organotin Complexes with Chelating Antioxidant Ligand” (Molecules, 2022)

Legend:
[1] = system: formation of advanced glycation end products (AGEs); assay: Antiglycation activity (BSA-glucose, AGE fluorescence); type: biochemical; conditions: for Antiglycation activity, M ± SEM: 24 h at 60 °C
Experimental: The glycation reaction was carried out in a phosphate buffer solution of 0.05 M, pH 7.4. Composition of the reaction medium: 0.36 M glucose solution and 1 mg/mL BSA (fraction V). The test compounds were dissolved in 99% DMSO (final concentration in the reaction medium ~3%). The activity of compound 1 was studied in the concentration range of 1000–0.1 μM, and the activity of aminoguanidine was determined at concentrations of 10,000–1000 μM. Control samples contained an equivalent volume of solvent. The samples were incubated for 24 h at 60 °C.
Data registration was carried out by the spectrofluorimetric method, determining AGE by specific fluorescence at excitation/emission wavelengths of 370/440 nm (spectrofluorimeter M 200 PRO, TECAN Austria GmbH, Grödig, Austria).
In order to exclude false positive results for compounds suppressing AGE fluorescence due to interference, the obtained data were logarithmically normalized according to Equation (4):Fly(log) = 10^(log10(Exp)−log10(Blank)) − 1(4) where Fly(log) is the normalized AGE fluorescence intensity, log10(Exp) and log10(blank) are the decimal logarithms of the actual fluorescence levels of glycated and corresponding non-glycated samples (both containing the test compound and controls).
The activity of other compounds (both non-fluorescent and fluorescent at the wavelengths used) was expressed by the Equation (5):Fly(lin) = Exp − Blank(5) where Fly(lin) is the fluorescence intensity of AGEs, Exp and blank are the actual fluorescence levels of glycated and corresponding non-glycated samples (both those containing the test compound and controls).
Determination of activity expressed as % suppression of fluorescence of AGE, was made according to the Equation (6):% = 100 − (Fly(Exp) × 100/Fly(Contr))(6) where Fly(Exp) and Fly(Contr) are the CPG fluorescence intensity of experimental and control samples, respectively (log-normalized or non-log-normalized).

[2] = system: HCT116 (human colorectal carcinoma); assay: MTT-test HCT116; type: cell-based
Experimental: (§1) Since the investigated compounds are designed as theranostic and cytostatic agents, their toxic impact was evaluated as a standard MTT-test. Cytotoxicity was studied on four cell lines, i.e.,—HCT116 (human colorectal carcinoma), MCF-7 (human breast cancer), A549 (human lung adenocarcinoma), and WI-38 (human fetal lung fibroblast). Obtained results appear to be unorthodox: as it is known, the introduction of an organotin moiety tends to noticeably increase compounds’ toxicity and more lipophilic ones do it better, but in the presented data pattern turns vice versa (Table 3).
(§2) HCT-116 (colon carcinoma), MCF-7 (breast adenocarcinoma), A-549 (lung adenocarcinoma) cell lines, and WI-38 (cell line composed of fibroblasts) were derived from The European Collection of Authenticated Cell Cultures (ECACC, Salisbury, UK), cultured in DMEM medium (Gibco™, Dublin, Ireland) supplemented with 10% fetal bovine serum (Gibco™, Brasilia, Brazil). The cells were cultured in an incubator at 37 °C in a humidified 5% CO2 atmosphere and subcultured two times a week.
(§3) The toxicity of compounds was studied on cultured cell lines according to standard MTT protocol.

[3] = system: MCF-7 (human breast cancer); assay: MTT-test MCF-7; type: cell-based
Experimental: as §1, §2, §3

[4] = system: A549 (human lung adenocarcinoma); assay: MTT-test A549; type: cell-based
Experimental: as §1, §2, §3

[5] = system: WI-38 (human fetal lung fibroblast); assay: MTT-test WI-38; type: cell-based
Experimental: as §1, §2, §3

| SMILES | IC50 [1] | Antiglycation activity, M ± SEM ([1]; concentration 1000 µM) | Antiglycation activity, M ± SEM ([1]; concentration 3000 µM) | Antiglycation activity, M ± SEM ([1]; concentration 10,000 µM) | IC50 [2] | IC50 [3] | IC50 [4] | IC50 [5] |
| --- | --- | --- | --- | --- | --- | --- | --- | --- |
| N=C(N)NN [Aminoguanidine, reference compound] | 5170 µM | 21.6 ± 1.8% | 39.5 ± 2.2% | 62.0 ± 2.0% |  |  |  |  |
| N.N.[Cl][Pt][Cl] [Cisplatin, reference compound] |  |  |  |  | 8.3 ± 3.5 µM | 15.5 ± 3 µM | 10.4 ± 1.5 µM | 16.3 ± 1.9 µM |
